Test results: paper PMC10584170, “Machine learning-based phenotypic imaging to characterise the targetable biology of Plasmodium falciparum male gametocytes for the development of transmission-blocking antimalarials” (PLOS Pathogens, 2023)
Like-named read-outs stand apart in the source and are kept apart here.

Legend:
[1] = test system: HepG2 cells; test: HepG2 cytotoxicity counter-screen
[2] = test system: P. falciparum female gametocytes; test: P. falciparum Dual Gamete Formation Assay (PfDGFA), female readout (Pfs25-positive female gametes); type: cell-based, Plasmodium falciparum NF54; settings: for Selectivity ratio F: HepG2 Tox50 versus female IC50; for IC50: read-out: Female IC50; for HitlevelF: number of replicates with >50% inhibition in the female readout
Method in brief: (§1)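 Mature NF54 gametocytes (day 14) were incubated with compound for 24 h at 37°C under 1% O2/3% CO2, then triggered with xanthurenic acid ookinete medium plus Cy3-anti-Pfs25. Exflagellation was imaged by brightfield; after a further 24 h at 28°C, Pfs25-positive female gametes were imaged by fluorescence and counted by automated image analysis.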

[3] = test system: P. falciparum male gametocytes; test: P. falciparum Dual Gamete Formation Assay (PfDGFA), male readout (exflagellation); type: cell-based, Plasmodium falciparum NF54; settings: for Selectivity Ratio M: HepG2 Tox50 versus male IC50; for IC50: read-out: Male IC50; for HitlevelM: number of replicates with >50% inhibition in the male readout
Method in brief: as §1

[4] = cytotoxic activity against HepG2 cells
[5] = PfDGFA at 2µM, 24h preincubation with gametocytes, average of replicates
[6] = PfDGFA at 2µM, 24h preincubation with gametocytes, replicate R1
[7] = PfDGFA at 2µM, 24h preincubation with gametocytes, replicate R3
[8] = PfDGFA at 2µM, 24h preincubation with gametocytes, replicate R4
[9] = PfDGFA, 24 h incubation with gametocytes before induction, female gamete readout
[10] = PfDGFA, 24 h incubation with gametocytes before induction, exflagellation readout
[11] = 2µM, 24h preincubation with gametocytes prior to induction of gametogenesis, average of replicates
[12] = 2µM, 24h preincubation with gametocytes prior to induction of gametogenesis, replicate R1
[13] = 2µM, 24h preincubation with gametocytes prior to induction of gametogenesis, replicate R3
[14] = 2µM, 24h preincubation with gametocytes prior to induction of gametogenesis, replicate R4

| SMILES | Tox50 [1, 4] [µM] | Selectivity ratio F [2] | Average inhibition female (%) [2, 5] [%] | % inhibition female (individual replicates) R1 [2, 6] [%] | % inhibition female (individual replicates) R3 [2, 7] [%] | % inhibition female (individual replicates) R4 [2, 8] [%] | IC50 [2, 9] [µM] | HitlevelF ([2]; 2µM) | Selectivity Ratio M [3] | Average inhibition male (%) [3, 5] [%] | % inhibition male (individual replicates) R1 [3, 6] [%] | % inhibition male (individual replicates) R3 [3, 7] [%] | % inhibition male (individual replicates) R4 [3, 8] [%] | IC50 [3, 10] [nM] | HitlevelM ([3]; 2µM) | other results |
| --- | --- | --- | --- | --- | --- | --- | --- | --- | --- | --- | --- | --- | --- | --- | --- | --- |
| COc1ccc(CCNCCCCCCNCCc2ccc(Cl)cc2)c(Cl)c1OC.Cl [TCMDC-131272] | 4.93 | 1.14 | 29.4 | 25.7 | -3.5 | 29.5 | 4.35 | 1 | 2.8 | 69.3 | 64.8 | 45.7 | 90.2 | 1760 | 3 |  |
| C[C@H](Cc1ccc(Oc2ccc(C[C@@H](C)NC[C@H](O)c3cccc(Cl)c3)cc2)cc1)NC[C@H](O)c1cccc(Cl)c1.Cl [TCMDC-131560] | 3.07 | 1.25 | 43.2 | 35.8 | 26.6 | 73.1 | 2.46 | 1 | 2.05 | 76.2 | 79.7 | 57.0 | 91.6 | 1500 | 4 |  |
| C[C@H](Cc1ccc(OCCCCCOc2ccc(C[C@@H](C)NC[C@H](O)c3cccc(Cl)c3)cc2)cc1)NC[C@H](O)c1cccc(Cl)c1.Cl [TCMDC-131563] | 3.24 | 1.3 | 27.5 | 37.3 | 14.2 | 41.5 | 2.49 | 0 | 2.4 | 65.6 | 66.8 | 65.3 | 85.7 | 1350 | 3 |  |
| CC[C@H]1CN2CCc3cc(OC)c(OC)cc3[C@@H]2C[C@@H]1C[C@H]1NCCc2c1cc(OC)c(O)c2Cl [TCMDC-131802] |  |  |  |  |  |  | 0.64 |  |  |  |  |  |  | 1910 |  | Tox50 [1]: 1.67 µM; Average inhibition female (%) [2, 11]: 66.5%; % inhibition female (individual replicates) R1 [2, 12]: 51.1%; % inhibition female (individual replicates) R3 [2, 13]: 66.5%; % inhibition female (individual replicates) R4 [2, 14]: 85.4%; HitlevelF ([2]; 2µM, 24h preincubation): 4; Average inhibition male (%) [3, 11]: 54.2%; % inhibition male (individual replicates) R1 [3, 12]: 49.4%; % inhibition male (individual replicates) R3 [3, 13]: 27.8%; % inhibition male (individual replicates) R4 [3, 14]: 72.9%; HitlevelM ([3]; 2µM, 24h preincubation): 2 |
| Br.CC[C@H]1CN2CCc3cc(OC)c(OC)cc3[C@@H]2C[C@@H]1C[C@H]1NCCc2c1cc(OC)c(O)c2I [TCMDC-131829] | 6.35 | 21.58 |  |  |  |  |  | 4 | 7.59 |  |  |  |  |  | 4 | IC50 ([2]; Plasmodium falciparum, 24 h): 0.29 µM; inhibition at 2 µM ([2]; Plasmodium falciparum, read-out: % inhibition female (individual replicates) R1): 83.8%; inhibition at 2 µM ([2]; Plasmodium falciparum, read-out: % inhibition female (individual replicates) R2): 92.3%; inhibition at 2 µM ([2]; Plasmodium falciparum, read-out: % inhibition female (individual replicates) R3): 106%; inhibition at 2 µM ([2]; Plasmodium falciparum, read-out: % inhibition female (individual replicates) R4): 88.5%; inhibition at 2 µM ([2]; Plasmodium falciparum, read-out: Average inhibition female (%)): 92.8%; IC50 ([3]; Plasmodium falciparum, 24 h): 840 nM; inhibition at 2 µM ([3]; Plasmodium falciparum, read-out: % inhibition male (individual replicates) R1): 84.6%; inhibition at 2 µM ([3]; Plasmodium falciparum, read-out: % inhibition male (individual replicates) R2): 83.8%; inhibition at 2 µM ([3]; Plasmodium falciparum, read-out: % inhibition male (individual replicates) R3): 88.6%; inhibition at 2 µM ([3]; Plasmodium falciparum, read-out: % inhibition male (individual replicates) R4): 95.7%; inhibition at 2 µM ([3]; Plasmodium falciparum, read-out: Average inhibition male (%)): 88.2% |
| N=C(N)NCCN(Cc1ccccc1)c1ccc(Cl)cc1 [TCMDC-131838] | 48.68 | 7.49 |  |  |  |  |  |  | 72.58 |  |  |  |  |  |  | inhibition at 2 µM ([2]; Plasmodium falciparum, 2µM, 24h preincubation with gametocytes, average of replicates, read-out: Average inhibition female (%)): 61.5%; inhibition at 2 µM ([2]; Plasmodium falciparum, 2µM, 24h preincubation with gametocytes, replicate R1, read-out: % inhibition female (individual replicates) R1): 40.2%; inhibition at 2 µM ([2]; Plasmodium falciparum, 2µM, 24h preincubation with gametocytes, replicate R2, read-out: % inhibition female (individual replicates) R2): 88.5%; inhibition at 2 µM ([2]; Plasmodium falciparum, 2µM, 24h preincubation with gametocytes, replicate R3, read-out: % inhibition female (individual replicates) R3): 50%; inhibition at 2 µM ([2]; Plasmodium falciparum, 2µM, 24h preincubation with gametocytes, replicate R4, read-out: % inhibition female (individual replicates) R4): 67.4%; IC50 ([2]; Plasmodium falciparum, PfDGFA, 24 h incubation with gametocytes before induction, female gamete readout): 6.5 µM; inhibition at 2 µM ([3]; Plasmodium falciparum, 2µM, 24h preincubation with gametocytes, average of replicates, read-out: Average inhibition male (%)): 98.3%; inhibition at 2 µM ([3]; Plasmodium falciparum, 2µM, 24h preincubation with gametocytes, replicate R1, read-out: % inhibition male (individual replicates) R1): 96.5%; inhibition at 2 µM ([3]; Plasmodium falciparum, 2µM, 24h preincubation with gametocytes, replicate R2, read-out: % inhibition male (individual replicates) R2): 98.5%; inhibition at 2 µM ([3]; Plasmodium falciparum, 2µM, 24h preincubation with gametocytes, replicate R3, read-out: % inhibition male (individual replicates) R3): 97.4%; inhibition at 2 µM ([3]; Plasmodium falciparum, 2µM, 24h preincubation with gametocytes, replicate R4, read-out: % inhibition male (individual replicates) R4): 101%; IC50 ([3]; Plasmodium falciparum, PfDGFA, 24 h incubation with gametocytes before induction, exflagellation readout): 670 nM |
| COc1cc2nc(NCCCN3CCCCC3)nc(NCc3ccccc3)c2cc1OC [TCMDC-132012] | 10.87 | 1.71 | 56.5 | 53.1 | 57.0 | 64.1 | 6.34 | 4 | 5.75 | 71.6 | 87.9 | 87.5 | 91.8 | 1890 | 3 |  |
| CCc1c(CCNCCCCCCNC(C)(C)Cc2ccc3c(c2CC)OCO3)ccc(OC)c1OC.Cl [TCMDC-132055] | 3.55 | 0.81 | 27.4 | 20.6 | -1.3 | 28.0 | 4.4 | 1 | 2.57 | 75.9 | 71.0 | 61.7 | 83.6 | 1380 | 4 |  |
